This passage reports EC50 results from BindingDB's records for doi:10.1016/j.ejmech.2018.06.052 (Cnrs/University of Strasbourg, 2018).

The structures appear in SMILES notation.

By EC50 is commonly meant the midpoint of the concentration-response curve.

A short description of the assay: Induction of PHB2-mediated melanogenesis in mouse Melan-a cells assessed as pigmentation after 72 hrs.

Take `NCCOCCOCCNc1nc(NCc2cccc(F)c2)nc(Oc2c(F)c(F)c(F)c(F)c2F)n1`: the EC50 worked out at 2.5 µM.
